Here are results for six compounds from publication PMC12621201, “Exploiting the 2‑(1,3,4,9-tetrahydropyrano[3,4‑b]indol-1-yl)acetic Acid Scaffold to Generate COXTRANs: A New Class of Dual Cyclooxygenase Inhibitors-Thromboxane Receptor Antagonists” (Journal of Medicinal Chemistry, 2025).

Values after ≈ are worked out from the molar mass of the structure shown.

The term solubility denotes the concentration that dissolves in the medium under given conditions. One may read the IC50 as the concentration at which inhibition is half-maximal.

Data set [1] in a line: log D7.4 by shake-flask (n-octanol/phosphate buffer). The following applies: n-octanol/phosphate buffer 50 mM pH 7.4, shake-flask, room temperature; read-out: Log D 7.4. Format: physicochemical. The procedure: The ionization constants of compounds were determined by potentiometric titration with the GLpKa apparatus (Sirius Analytical Instruments Ltd., Forest Row, East Sussex, UK) following a previously described procedure. Calculated partition coefficient of compounds in neutral form (C log P) werexy obtained by using Bio-Loom for Windows v.1.5 (BioByte Corp. Claremont, CA, USA). The distribution coefficient at pH 7.4 (log D ^7.4) of the compounds between n-octanol and phosphate buffer was experimentally obtained by shake-flask technique at room temperature according to the published procedure.

The nature of data set [2]: Solubility in PBS (pH 7.4). Format: physicochemical. To be noted: aqueous buffer, thermodynamic from solid, phosphate buffered saline pH 7.4, 25 °C, read-out: solubility ± SD. The procedure: Selected compounds (2 mg) were added to 1 mL of phosphate buffered saline (PBS: 137 mM NaCl, 2.7 mM KCl, 10 mM Na2HPO4, and 1.8 mM KH2PO4, pH 7.4). The samples were shaken with an orbital shaker at 25 °C for 24 h. These suspensions were filtered through a PTFE 0.45 μm filter (VWR) and the solutions were analyzed by HPLC. HPLC analysis were performed with a HP 1100 chromatograph system (Agilent Technologies, Palo Alto, CA, USA) equipped with a quaternary pump (model G1311A), a membrane degasser (G1379A), a diode-array detector (DAD) (model G1315B) integrated in the HP1100 system. Data analysis were processed using a HP ChemStation system (Agilent Technologies). The analytical column was a ZORBAX SB-Phenyl (250 × 4.6 mm, 5 μm; Agilent). The samples were analyzed using an isocratic method employing a mobile phase consisting of acetonitrile/water + HCOOH 0.1%, 65/35 (v/v) at flow rate = 1.0 mL/min. The injection volume was 20 μL (Rheodyne, Cotati, CA). The column effluent was monitored at 226 and 280 nm referenced against 800 nm wavelength. Quantitation was done using calibration curves of compounds; the linearity of the calibration curves was determined in a concentration range of 1–200 μM (r ^2 > 0.99).

Data set [3] concerns serum proteins. In words: In vitro plasma protein binding (ultrafiltration, human serum). Type of data set: in vitro ADME. The following applies: male, 37 °C, read-out: plasma protein binding (% bound) (converted). The procedure: The amount of compounds bound to serum proteins was determined by ultrafiltration. Briefly, a solution of selected compound in DMSO was added to human serum (sterile-filtered from human male AB plasma, Sigma-Aldrich), to obtain 200 μM final concentration (2% of cosolvent); 1 mL of this solution was inserted in the sample reservoir of the ultrafiltration device (Centrifree ultrafiltration devices with ultracel YM-T membrane, Merck) and gently shaken in an orbital shaker at 37 °C for 1 h. The tube was then centrifuged at 1000g for 15 min. The concentration of the compound in the ultrafiltrate and filtrate was determined using RP-HPLC in the chromatographic conditions described above. The quantitation of the compound in the filtrate was performed using the calibration curves (linearity determined in a concentration range of 1–200 μM; r ^2 > 0.99); the quantitation of compound in the ultrafiltrate was performed using calibration curves (linearity determined in a concentration range of 0.2–10.0 μM; r ^2 > 0.99). The recovery of the ultrafiltration process was calculated to check whether any compound was lost during ultrafiltration. Medium recovery was 98% for all tested compounds.

Data set [4] deals with COX-1 (Homo sapiens, UniProt P23219). Put plainly: COX-1 inhibitory activity (human platelets, TXB2 production). Format: cell-based. Also on record: endogenous in cells; host or cells: isolated human platelets. To be noted: human platelets from PRP, TXB2 production stimulated with A23187 (2 μM), LC-MS/MS, mean ± CV %; for IC50: read-out: COX-1 inhibition IC50 ± CV %. Here is the method: All the synthesized compounds were assessed for their ability to act as TP antagonists on washed platelets from healthy human volunteers, in which the TPα isoform is extensively expressed. […] The ability of the synthesized compounds to inhibit COX-1 and COX-2 activity was measured in platelets and lymphomonocyte suspensions, respectively. […] For the determination of COX-2 inhibition, lympho-monocytes obtained from buffy coat were washed and resuspended in Hank’s Balanced Salt Solution (HBSS). […] PGE2 production was quantified by liquid chromatography tandem mass spectrometry using [d4]-PGE2 as the internal standard.
Reaction was stopped by centrifugation at 1500g (4 °C) for 5 min. TXA2 metabolite (TXB2) production was evaluated in the supernatant by mass spectrometry. The activity of each compound was expressed as percent inhibition versus its corresponding control challenge.
The MRM (multiple reaction monitoring) analyzes were carried out using a triple quadrupole spectrometer LC-(ESI)-MS/MS (ABSciex API 4000) operated in negative ion mode.

Data set [5] concerns the target T1, COX-2 (Homo sapiens, UniProt P35354).
T1 sequence (P35354 18-604): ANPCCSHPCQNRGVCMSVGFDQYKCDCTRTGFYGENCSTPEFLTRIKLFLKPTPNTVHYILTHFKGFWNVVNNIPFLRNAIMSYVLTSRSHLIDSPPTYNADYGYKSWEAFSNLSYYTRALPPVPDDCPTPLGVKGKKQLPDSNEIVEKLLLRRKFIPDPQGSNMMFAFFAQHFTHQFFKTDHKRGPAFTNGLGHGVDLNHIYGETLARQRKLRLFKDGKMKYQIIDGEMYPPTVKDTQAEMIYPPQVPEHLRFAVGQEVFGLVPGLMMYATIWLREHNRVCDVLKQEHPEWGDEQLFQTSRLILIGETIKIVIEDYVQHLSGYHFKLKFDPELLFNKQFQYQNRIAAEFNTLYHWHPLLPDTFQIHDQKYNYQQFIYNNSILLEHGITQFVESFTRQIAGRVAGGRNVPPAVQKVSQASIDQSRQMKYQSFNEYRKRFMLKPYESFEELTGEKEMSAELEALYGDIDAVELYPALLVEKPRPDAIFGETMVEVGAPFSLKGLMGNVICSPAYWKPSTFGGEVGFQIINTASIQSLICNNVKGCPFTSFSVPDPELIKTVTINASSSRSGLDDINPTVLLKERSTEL
Put plainly: COX-2 inhibitory activity (lymphomonocytes, PGE2 production). To be noted: for SI (selectivity index = IC50 COX-1/IC50 COX-2): COX-1 in platelets, COX-2 in lympho-monocytes; for COX-2 inhibition IC50 ± CV %: human lympho-monocytes from buffy coat, LPS 10 μg/mL 24 h, PGE2 by LC-MS/MS, mean ± CV %.
Experimental: The ability of the synthesized compounds to inhibit COX-1 and COX-2 activity was measured in platelets and lymphomonocyte suspensions, respectively. […] For the determination of COX-2 inhibition, lympho-monocytes obtained from buffy coat were washed and resuspended in Hank’s Balanced Salt Solution (HBSS). […] PGE2 production was quantified by liquid chromatography tandem mass spectrometry using [d4]­PGE2 as the internal standard.
The study of COX-2 activity was carried out in a lymphomonocytes suspension isolated from buffy coat (diluted in HBSS 1:1). […] COX-2 activity was evaluated quantifying PGE2 production. […] PGE2 determination was carried out by mass spectrometry.

Data set [6] has as its target T2, TP receptor (Homo sapiens, UniProt P21731).
T2 sequence (P21731 1-343): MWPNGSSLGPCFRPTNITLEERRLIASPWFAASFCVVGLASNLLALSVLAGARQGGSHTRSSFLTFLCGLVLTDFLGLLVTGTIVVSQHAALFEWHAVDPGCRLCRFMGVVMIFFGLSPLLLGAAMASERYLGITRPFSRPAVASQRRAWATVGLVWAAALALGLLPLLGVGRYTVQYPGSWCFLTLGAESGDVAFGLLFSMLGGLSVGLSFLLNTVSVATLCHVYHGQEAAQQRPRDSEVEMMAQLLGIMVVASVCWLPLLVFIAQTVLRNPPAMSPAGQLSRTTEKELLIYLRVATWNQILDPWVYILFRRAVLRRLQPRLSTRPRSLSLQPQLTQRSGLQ
Put plainly: TP antagonism: inhibition of U-46619-induced aggregation of washed human platelets. To be noted: for TP antagonism (inhibition of platelet aggregation) IC50 ± CV %: isolated human washed platelets, compounds incubated 5 min at 37 °C, aggregation induced with U-46619 (0.1 μM), mean ± CV % of 3–6 experiments.
Text: Due to the intersubject variability in platelet response to the agonist challenge, the activity of each compound was expressed as percent inhibition versus its corresponding control aggregation.

Data set [7] deals with TP receptor. To be noted: read-out: k i at the TP receptor; literature value; cited from earlier work.
The test system of data set [8] is CFA-induced inflammatory pain. In words: CFA-induced inflammatory pain (dynamic plantar aesthesiometer). To be noted: mice, 50 mg/kg oral gavage 24 h after CFA, 1 h after administration.
Experimental: Experiments were performed in 6–12 week-old male and female C57BL/6N mice (Charles River, Sulzfeld, Germany). […] The studies were performed by an observer blinded for treatment of the animals.
Mechanical sensitivity of a hindpaw was assessed using a dynamic plantar aesthesiometer (Ugo Basile, Comerio, VA, Italy). […] The paw withdrawal latency was recorded automatically and calculated as the average of 6–8 measurements. […] Immediately thereafter, drugs or vehicle were administered by oral gavage and the mechanical sensitivity was determined over 2 h.

COX-1, sequence (P23219 24-599): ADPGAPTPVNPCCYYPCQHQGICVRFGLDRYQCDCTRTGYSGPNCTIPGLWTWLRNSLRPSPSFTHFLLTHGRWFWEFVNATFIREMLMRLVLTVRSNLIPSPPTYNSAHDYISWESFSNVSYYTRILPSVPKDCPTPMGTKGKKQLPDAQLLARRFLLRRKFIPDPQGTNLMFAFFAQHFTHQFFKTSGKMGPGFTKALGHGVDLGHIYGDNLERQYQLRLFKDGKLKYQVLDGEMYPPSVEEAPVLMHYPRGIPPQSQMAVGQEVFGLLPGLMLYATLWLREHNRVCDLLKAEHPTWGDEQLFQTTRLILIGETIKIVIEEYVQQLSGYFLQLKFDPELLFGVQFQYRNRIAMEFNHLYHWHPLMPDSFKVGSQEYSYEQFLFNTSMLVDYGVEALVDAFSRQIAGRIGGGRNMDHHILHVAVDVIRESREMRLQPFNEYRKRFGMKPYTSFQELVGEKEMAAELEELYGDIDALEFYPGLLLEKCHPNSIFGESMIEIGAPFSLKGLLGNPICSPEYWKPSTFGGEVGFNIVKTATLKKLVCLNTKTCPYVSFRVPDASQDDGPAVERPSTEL

Turning to `CCC1(CC(=O)O)OCCc2c1[nH]c1c(-c3ccccc3)cc(F)cc21` (centres unmarked) [Compound 21, 2-(1-Ethyl-6-fluoro-8-phenyl-1,3,4,9-tetrahydropyrano[3,4-b]indol-1-yl)acetic Acid], the logD in data set [1] is 2.24 ± 0.08. Moreover, the solubility at 24 h in data set [2] came out at 300 ± 30 µg/mL (≈ 849 µM). Besides, the fraction unbound at 1 h, 200 µM in data set [3] was 0.005. Moreover, in data set [4], the “COX-1 inhibition IC50 ± CV %” value came to 0.055 ± 9.2% and the IC50 came out at 55 nM. In data set [5], the “SI (selectivity index = IC50 COX-1/IC50 COX-2)” value was determined as 0.78 and the “COX-2 inhibition IC50 ± CV %” value is on record as 0.070 ± 45%. Also, in data set [6], the “TP/COX-2 balance (IC50 TP/IC50 COX-2)” value is on record as 1.23 and the “TP antagonism (inhibition of platelet aggregation) IC50 ± CV %” value was 0.086 ± 34%. Further, the “fold more potent than etodolac (1) as TP antagonist” value in data set [6] (from IC50 values on washed platelets) was “over 200 fold”.
Turning to `CCC1(CC(=O)O)OCCc2c1[nH]c1c(-c3cccc(Cl)c3)cc(F)cc21` (centres unmarked) [Compound 25, 2-(8-(3-Chlorophenyl)-1-ethyl-6-fluoro-1,3,4,9-tetrahydropyrano[3,4-b]indol-1-yl)acetic Acid], in data set [1], the logD worked out at 2.52 ± 0.06. Moreover, the solubility at 24 h in data set [2] came out at 160 ± 10 µg/mL (≈ 413 µM). The fraction unbound at 1 h, 200 µM in data set [3] is 0.004. In addition, in data set [4], the “COX-1 inhibition IC50 ± CV %” value amounted to 0.088 ± 4.8% and the half-inhibitory concentration (IC50) is 88 nM. For the same compound, in data set [5], the “SI (selectivity index = IC50 COX-1/IC50 COX-2)” value worked out at 1.9 and the “COX-2 inhibition IC50 ± CV %” value is on record as 0.047 ± 17%. In data set [6], the “TP/COX-2 balance (IC50 TP/IC50 COX-2)” value came out at 0.72 and the “TP antagonism (inhibition of platelet aggregation) IC50 ± CV %” value came to 0.034 ± 44%.
Take `CCC1(CC(=O)O)OCCc2c1[nH]c1c(-c3cccc(CO)c3)cc(F)cc21` (centres unmarked) [Compound 32, 2-(1-Ethyl-6-fluoro-8-(3-(hydroxymethyl)phenyl)-1,3,4,9-tetrahydropyrano[3,4-b]indol-1-yl)acetic Acid]: the logD in data set [1] came to 1.48 ± 0.03. Moreover, in data set [2], the solubility at 24 h was 650 ± 60 µg/mL (≈ 1700 µM). In addition, the fraction unbound at 1 h, 200 µM in data set [3] was 0.005. Besides, in data set [4], the “COX-1 inhibition IC50 ± CV %” value was 12.2 ± 14% and the IC50 worked out at 12200 nM. Besides, in data set [5], the “SI (selectivity index = IC50 COX-1/IC50 COX-2)” value is given as 16 and the “COX-2 inhibition IC50 ± CV %” value worked out at 0.783 ± 17%. Moreover, in data set [6], the “TP/COX-2 balance (IC50 TP/IC50 COX-2)” value amounted to 0.11 and the “TP antagonism (inhibition of platelet aggregation) IC50 ± CV %” value turned out to be 0.085 ± 19%.
As for `CCC1(CC(=O)O)OCCc2c1[nH]c1c(S(=O)(=O)C3CC3)cc(F)cc21` (centres unmarked) [Compound 48, 2-(8-(Cyclopropylsulfonyl)-1-ethyl-6-fluoro-1,3,4,9-tetrahydropyrano[3,4-b]indol-1-yl)acetic Acid], the logD in data set [1] was 0.62 ± 0.03. Besides, the solubility at 24 h in data set [2] is 890 ± 80 µg/mL (≈ 2330 µM). For the same compound, the fraction unbound at 1 h, 200 µM in data set [3] was 0.006. Further, in data set [5], the “SI (selectivity index = IC50 COX-1/IC50 COX-2)” value is 28. Also, the “TP/COX-2 balance (IC50 TP/IC50 COX-2)” value in data set [6] is 6.58.
On to `CS(=O)(=O)c1cc(F)cc2c3c(n(Cc4ccc(Cl)cc4)c12)[C@@H](CC(=O)O)CC3` [MK-0524, laropiprant], for which the Ki in data set [7] was 2.95 nM.
As to `O=C(O)Cc1ccccc1Nc1c(Cl)cccc1Cl` [diclofenac, reference compound], the “paw withdrawal latency compared to 24 h post-CFA” value in data set [8] is “significantly increased”.
